Measurements published in patent publication US8710060B2, “Piperazinyl methyl phenyl cyclohexane compound” (Daiichi Sankyo Company, Limited, priority 2010, dated 2014).
Where a name gives a salt, the structure may show the parent alone.

Test system: longitudinal muscle strip from the duodenal smooth muscle layer
Assay: Measurement of intestinal contractile activity (Magnus organ bath, cumulative dosing)
Conditions: Oryctolagus cuniculus; male NZW rabbit duodenal longitudinal muscle strip, Krebs solution 31° C., test compound 0.01 nM to 10 μM cumulative dosing; contraction by carbachol 10 μM taken as 100%
Description: Bioactivity Test (Measurement of Intestinal Contractile Activity)
A male NZW rabbit (body weight: 2.5 to 3.0 kg, KITAYAMA LABES CO., LTD., NAGANO) was used.
Carbachol (carbamylcholine chloride, Sigma-Aldrich Japan K.K.) was purchased and used. Each test compound was dissolved in dimethyl sulfoxide (DMSO, Sigma-Aldrich Japan K.K.), and then suspended in physiological saline. Carbachol was dissolved in physiological saline.
(3) Experimental Method and Results
Pentobarbital sodium (Kyoritsu Seiyaku Corporation, Osaka) was administered to the rabbit through the auricular vein, and the rabbit was euthanized by exsanguination under anesthesia. Thereafter, the duodenum was excised from the rabbit and rapidly rinsed with Krebs solution (NaCl 120.0 mM, KCl 4.7 mM, CaCl2 2.4 mM, KH2PO4 1.0 mM, MgSO4 1.2 mM, NaHCO3 24.5 mM, and glucose 5.6 mM, pH 7.4). Then, a longitudinal muscle strip (length: 10 mm, width: 3 mm) was prepared from the duodenal smooth muscle layer obtained by stripping off the mucosal layer from the duodenum. The prepared strip was mounted in an organ bath and contained in 20 mL of Krebs solution gassed with 95% O2 and 5% CO2 at 31° C. so as to suppress excessive locomotion, and a tension of 1 g was applied thereto. The strip was left to stand for 1 hour or more while replacing the Krebs solution every 15 minutes until the strip was equilibrated. Before starting the experiment, stimulation with carbachol at 10 μM was repeatedly applied until a reproducible contraction was obtained. The contractile activity was measured with an FD pickup (TB-611T, Nihon Kohden Corporation, Tokyo) and recorded on a pen recorder (RECTI HORIZ-8K, Sanei, Tokyo). Each test compound was added to the Krebs solution at 0.01 nM to 10 μM, and the strip was contracted by cumulative dosing. The contractile activity at each concentration was determined when the contractile activity at the time of stimulation with carbachol at 10 μM was taken as 100%, and the EC50 value of each test compound was determined. The EC50 values are shown below.

| SMILES | EC50 [nM] |
| --- | --- |
| Cc1cc(N(C)C(=O)[C@H]2CC[C@H](Oc3cccc(CS(C)(=O)=O)c3)CC2)ccc1CN1CCN[C@@H](C)C1 [Example 42, hydrochloride] | 4.8 |
| Cc1cc(N(C)C(=O)[C@H]2CC[C@H](Oc3ccc(F)cn3)CC2)ccc1CN1CCN[C@@H](C)C1 [Example 4, Trans-4-[(5-fluoropyridin-2-yl)oxy]-N-methyl-N-(3-methyl-4-{[(3S)-3-methylpiperazin-1-yl]methyl}phenyl)cyclohexanecarboxamide hydrochloride] | 2.5 |
| Cc1cc(N(C)C(=O)[C@H]2CC[C@H](Oc3cccc(CO)c3)CC2)ccc1CN1CCN[C@@H](C)C1 [Example 5, Trans-4-[3-(hydroxymethyl)phenoxy]-N-methyl-N-(3-methyl-4-{[(3S)-3-methylpiperazin-1-yl]methyl}phenyl)cyclohexanecarboxamide hydrochloride] | 7.3 |
| Cc1cc(N(C)C(=O)[C@H]2CC[C@H](Oc3cccc(COCC(C)(C)O)c3)CC2)ccc1CN1CCN[C@@H](C)C1 [Example 57, Trans-4-{3-[(2-hydroxy-2-methylpropoxy)methyl]phenoxy}-N-methyl-N-(3-methyl-4-{[(3S)-3-methylpiperazin-1-yl]methyl}phenyl)cyclohexanecarboxamide hydrochloride] | 11.3 |
| Cc1cc(N(C)C(=O)[C@H]2CC[C@H](Oc3cccc(COC[C@@H](C)O)c3)CC2)ccc1CN1CCN[C@@H](C)C1 [Example 56, Trans-4-[3-({[(2R)-2-hydroxypropyl]oxy}methyl)phenoxy]-N-methyl-N-(3-methyl-4-{[(3S)-3-methylpiperazin-1-yl]methyl}phenyl)cyclohexanecarboxamide hydrochloride] | 1.2 |
| Cc1cc(N(C)C(=O)[C@H]2CC[C@H](Oc3ccnc(C#N)c3)CC2)ccc1CN1CCN[C@@H](C)C1 [Example 22, Trans-4-[(2-cyanopyridin-4-yl)oxy]-N-methyl-N-(3-methyl-4-{[(3S)-3-methylpiperazin-1-yl]methyl}phenyl)cyclohexanecarboxamide hydrochloride] | 4.8 |
| Cc1cc(N(C)C(=O)[C@H]2CC[C@H](Oc3cccc(CC(=O)NC(C)(C)C)c3)CC2)ccc1CN1CCN[C@@H](C)C1 [Example 33, Trans-4-{3-[2-(tert-butylamino)-2-oxoethyl]phenoxy}-N-methyl-N-(3-methyl-4-{[(3S)-3-methylpiperazin-1-yl]methyl}phenyl)cyclohexanecarboxamide] | 1.5 |
| Cc1cc(N(C)C(=O)[C@H]2CC[C@H](Oc3cccc(CC(=O)NC(C)C)c3)CC2)ccc1CN1CCN[C@@H](C)C1 [Example 30, Trans-4-{3-[2-(isopropylamino)-2-oxoethyl]phenoxy}-N-methyl-N-(3-methyl-4-{[(3S)-3-methylpiperazin-1-yl]methyl}phenyl)cyclohexanecarboxamide hydrochloride] | 3 |
| COCCOCc1cccc(O[C@H]2CC[C@H](C(=O)N(C)c3ccc(CN4CCN[C@@H](C)C4)c(C)c3)CC2)c1 [Example 53, Trans-4-{3-[(2-methoxyethoxy)methyl]phenoxy}-N-methyl-N-(3-methyl-4-{[(3S)-3-methylpiperazin-1-yl]methyl}phenyl)cyclohexanecarboxamide hydrochloride] | 6.8 |
| C[C@H]1CN(Cc2ccc(N(C)C(=O)[C@H]3CC[C@H](Oc4ccc(F)cc4)CC3)cc2)CCN1 [Example 1, Trans-4-(4-fluorophenoxy)-N-methyl-N-(4-{[(3S)-3-methylpiperazin-1-yl]methyl}phenyl)cyclohexanecarboxamide] | 28 |
| Cc1cc(N(C)C(=O)[C@H]2CC[C@H](Nc3cccc(COCC(C)(C)O)c3)CC2)ccc1CN1CCN[C@@H](C)C1 [Example 58, Trans-4-({3-[(2-hydroxy-2-methylpropoxy)methyl]phenyl}amino)-N-methyl-N-(3-methyl-4-{[(3S)-3-methylpiperazin-1-yl]methyl}phenyl)cyclohexanecarboxamide hydrochloride] | 0.9 |
| CCOC(=O)Cc1cccc(O[C@H]2CC[C@H](C(=O)N(C)c3ccc(CN4CCN[C@@H](C)C4)c(C)c3)CC2)c1 [Example 16, Ethyl [3-({trans-4-[methyl(3-methyl-4-{[(3S)-3-methylpiperazin-1-yl]methyl}phenyl)carbamoyl]cyclohexyl}oxy)phenyl]acetate hydrochloride] | 2.4 |
| Cc1cc(N(C)C(=O)[C@H]2CC[C@H](Oc3cccc(CC(=O)N(C)C(C)C)c3)CC2)ccc1CN1CCN[C@@H](C)C1 [Example 34, Trans-4-(3-{2-[isopropyl(methyl)amino]-2-oxoethyl}phenoxy)-N-methyl-N-(3-methyl-4-{[(3S)-3-methylpiperazin-1-yl]methyl}phenyl)cyclohexanecarboxamide] | 2.1 |
